The text below walks through data of ChEMBL document CHEMBL3243978, “2-(Substituted phenyl)oxazolo[4,5-b]pyridines and 2-(substituted phenyl)oxazolo[5,4-b]pyridines as nonacidic antiinflammatory agents” (J Med Chem, 1978).

Data set [1] is filed under the species Rattus norvegicus. Kind of data set: animal or person. It is filed as functional.
Description: Antiinflammatory activity in rat assessed as inhibition of carrageenan-induced foot edema at 30 mg/kg
A short description of data set [2]: Acute toxicity in po dosed mouse. The conditions noted are these: in vivo.
The subject of data set [3] is Rattus norvegicus. Kind of data set: Antiinflammatory activity in rat assessed as inhibition of carrageenan-induced foot edema. The format is functional.
For data set [4], the species on record is Rattus norvegicus. Kind of data set: Antiarthritic activity in rat assessed as reduction in adjuvant-induced arthritic pain. It is filed as functional.
The species named for data set [5] is Mus musculus.
In data set [6] the target is T1, Prostaglandin E synthase (Homo sapiens) (UniProt O14684).
T1 sequence (whole entry): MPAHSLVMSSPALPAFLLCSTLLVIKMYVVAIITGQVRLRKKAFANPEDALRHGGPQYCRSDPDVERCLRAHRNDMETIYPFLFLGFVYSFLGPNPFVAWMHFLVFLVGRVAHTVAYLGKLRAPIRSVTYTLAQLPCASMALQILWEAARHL
Description: Inhibition of prostaglandin synthetase (unknown origin)

The test system of data set [7] is Rattus norvegicus. Kind of data set: Toxicity in rat assessed as indomethacin-induced intestinal perforation at 256 mg/kg after 3 days. The following applies: in vivo, 72 h. It is filed as organism-based. On the set-up: dose 256 mg/kg.
Data set [8] relates to Rattus norvegicus. As to the kind of experiment: Toxicity in rat assessed as indomethacin-induced intestinal perforation at 400 mg/kg after 3 days. It is filed as organism-based. Further details: dose 400 mg/kg. The conditions noted are these: in vivo, 72 h.
Data set [9] has as its system Rattus norvegicus. Kind of data set: Toxicity in rat assessed as indomethacin-induced intestinal perforation at 1024 mg/kg after 3 days. The format is organism-based. Further details: dose 1024 mg/kg. The conditions noted are these: in vivo, 72 h.

≈ marks a conversion by molar mass, not a printed value.

For orientation: inhibition in vivo means the drop in the measured response relative to a control, in per cent. The low end stands for a weak effect, the high end for a strong effect. Broadly, the LD50 is the dose expected to kill half of the subjects tested. A low value points to a more toxic substance.

Consider `COc1cccc(-c2nc3cccnc3o2)c1`, for which the inhibition in vivo at 30 mg/kg in data set [1] came to 0%.
Still for that read-out and setting: under `Clc1cccc(Cl)c1-c1nc2ncccc2o1` stands 14%; under `Cc1cccc(-c2nc3cccnc3o2)c1`, 14%; under `O=[N+]([O-])c1cccc(-c2nc3ncccc3o2)c1`, 21%.
For `COc1ccc2c(c1)c(CC(=O)O)c(C)n2C(=O)c1ccc(Cl)cc1` [INDOMETHACIN], the 50% lethal dose (LD50) in data set [2] was 50 mg/kg. The ED50 in [3] turned out to be 2.7 mg/kg; in data set [4], 0.27 mg/kg; in data set [5] it was 2.7 mg; in data set [6], 0.1 mg/L (≈ 0.279 µM).
In data set [1], `N#Cc1ccc(-c2nc3cccnc3o2)cc1` returned an inhibition in vivo at 30 mg/kg of 17%.
Consider `Fc1cccc(F)c1-c1nc2ncccc2o1`, for which 30 mg/kg produced 66% inhibition in vivo in data set [1]. The 50% lethal dose (LD50) in data set [2] is 709 mg/kg. In addition, the ED50 in data set [3] worked out at 22 mg/kg; in data set [4], 7.4 mg/kg; in data set [5] it was 2.4 mg; in [6] it was 15 mg/L (≈ 64.6 µM).
`FC(F)(F)c1cccc(-c2nc3cccnc3o2)c1` showed an inhibition in vivo at 30 mg/kg in [1] of 7%.
In [1], `Fc1ccc(-c2nc3ncccc3o2)c(F)c1` yielded an inhibition in vivo at 30 mg/kg of 23%.
Compound `Clc1cccc(-c2nc3cccnc3o2)c1` had an inhibition in vivo at 30 mg/kg in data set [1] of 8%.
The same measure, in the same setting: for `COc1ccc(-c2nc3ncccc3o2)cc1` the value was 14%.
The same measure, in the same setting: for `Brc1ccccc1-c1nc2cccnc2o1` the value was 31%.
Compound `Cc1ccc(-c2nc3cccnc3o2)cc1` came in with an inhibition in vivo at 30 mg/kg in [1] of 0%.
On the same count and under the same terms, under `c1ccc(-c2nc3cccnc3o2)cc1` stands 55%; under `CSc1ccccc1-c1nc2ncccc2o1`, 21%.
For `Clc1ccccc1-c1nc2cccnc2o1`, the inhibition in vivo at 30 mg/kg in data set [1] was determined as 50%.
Still for that read-out and setting: under `FC(F)(F)Oc1ccc(-c2nc3ncccc3o2)cc1` stands 0%.
In turn, `N#Cc1ccccc1-c1nc2ncccc2o1` yielded an inhibition in vivo at 30 mg/kg in data set [1] of 62%. The compound also registered an LD50 in data set [2] of 1220 mg/kg. Besides, the ED50 amounted to 17 mg/kg in data set [3], 20 mg/kg in data set [4], 2 mg in [5] and 14 mg/L (≈ 63.3 µM) in data set [6].
In [1], `Cc1ccccc1-c1nc2ncccc2o1` had an inhibition in vivo at 30 mg/kg of 0%.
On to `Fc1ccccc1-c1nc2ncccc2o1`, for which the inhibition in vivo at 30 mg/kg in data set [1] came to 64%. Moreover, in data set [2], the LD50 worked out at 556 mg/kg. Moreover, the ED50 turned out to be 21 mg/kg in [3], 23 mg/kg in data set [4], 6 mg in data set [5] and 3 mg/L (≈ 14 µM) in [6]. For the same compound, the Activity result in [7] was “Non-toxic”.
Regarding `c1ccc(-c2nc3ncccc3o2)cc1`, the inhibition in vivo at 30 mg/kg in [1] is 41%.
As to `Brc1cccc(-c2nc3ncccc3o2)c1`, 30 mg/kg produced 23% inhibition in vivo in data set [1].
Compound `COc1cccc(-c2nc3ncccc3o2)c1` registered an inhibition in vivo at 30 mg/kg in data set [1] of 14%.
On the same count and under the same terms, for `Fc1ccc(F)c(-c2nc3ncccc3o2)c1` the value was 18%.
For `N#Cc1ccccc1-c1nc2cccnc2o1`, 30 mg/kg produced 61% inhibition in vivo in data set [1]. This compound also came in with an LD50 in data set [2] of 1500 mg/kg. Further, the ED50 in data set [3] worked out at 11 mg/kg; in data set [4], 44 mg/kg; in data set [5], 3 mg; in [6] it was 16 mg/L (≈ 72.3 µM). In addition, the Activity entry in data set [7] is reported as “Non-toxic”.
Compound `COc1ccc(C#N)c(-c2nc3ncccc3o2)c1` showed an inhibition in vivo at 30 mg/kg in data set [1] of 3%.
Same read-out and setting: for `O=[N+]([O-])c1ccc(-c2nc3cccnc3o2)cc1` the value was 5%.
The same measure, in the same setting: for `COc1ccccc1-c1nc2ncccc2o1` the value was 9%.
On the same count and under the same terms, under `N#Cc1cccc(F)c1-c1nc2ncccc2o1` stands 50%.
Consider `Fc1cc(Cl)ccc1-c1nc2ncccc2o1`, for which the inhibition in vivo at 30 mg/kg in data set [1] was 19%.
On the same count and under the same terms, under `Fc1ccc(-c2nc3cccnc3o2)cc1` stands 27%; under `COc1ccc(Br)c(-c2nc3ncccc3o2)c1`, 8%.
In data set [1], `Cc1ccc(-c2nc3ncccc3o2)cc1` displayed an inhibition in vivo at 30 mg/kg of 5%.
Compound `CC(C)Cc1ccc(C(C)C(=O)O)cc1` (stereo unspecified) [IBUPROFEN] showed an LD50 in data set [2] of 1370 mg/kg. Besides, the ED50 in [3] is 15 mg/kg; in data set [4], 27 mg/kg; in [5], 5 mg; in [6] it was 0.4 mg/L (≈ 1.94 µM).
`Fc1ccc(-c2nc3ncccc3o2)cc1` gave an inhibition in vivo at 30 mg/kg in [1] of 28%.
`CCCCC1C(=O)N(c2ccccc2)N(c2ccccc2)C1=O` [PHENYLBUTAZONE] gave a 50% lethal dose (LD50) in data set [2] of 555 mg/kg. In addition, the ED50 came out at 28 mg/kg in [3], 14 mg/kg in [4], 4.3 mg in data set [5] and 3 mg/L (≈ 9.73 µM) in data set [6]. The Activity result in data set [8] is given as “Non-toxic”.
In turn, `Clc1ccc(-c2nc3cccnc3o2)cc1` displayed an inhibition in vivo at 30 mg/kg in [1] of 14%.
Same read-out and setting: under `Clc1ccc(-c2nc3ncccc3o2)cc1` stands 24%; under `Fc1cccc(F)c1-c1nc2cccnc2o1`, 50%.
Same read-out and setting: for `COc1ccc(-c2nc3cccnc3o2)cc1` the value was 29%.
Turning to `O=[N+]([O-])c1ccccc1-c1nc2cccnc2o1`, in data set [1], the inhibition in vivo at 30 mg/kg came out at 57%.
`Brc1ccccc1-c1nc2ncccc2o1` gave an inhibition in vivo at 30 mg/kg in data set [1] of 24%.
Compound `CC(=O)Oc1ccccc1C(=O)O` [ASPIRIN] yielded a 50% lethal dose (LD50) in data set [2] of 1220 mg/kg. Also, the ED50 in data set [3] amounted to 89 mg/kg; in data set [4] it was 67 mg/kg; in [5], 7 mg; in [6] it was 13.4 mg/L (≈ 74.4 µM). In addition, the Activity result in [9] is given as “Non-toxic”.
On to `Nc1ccccc1-c1nc2cccnc2o1`, for which the inhibition in vivo at 30 mg/kg in data set [1] was 13%.
The same measure, in the same setting: under `Fc1cccc(-c2nc3cccnc3o2)c1` stands 35%.
On the same count and under the same terms, for `FC(F)(F)c1ccccc1-c1nc2ncccc2o1` the value was 19%; for `Cc1ccccc1-c1nc2cccnc2o1`, 3%; for `N#Cc1cccc(-c2nc3ncccc3o2)c1`, 21%.
Consider `Clc1ccccc1-c1nc2ncccc2o1`, for which the inhibition in vivo at 30 mg/kg in data set [1] is 38%.
The same measure, in the same setting: for `Clc1cccc(-c2nc3ncccc3o2)c1` the value was 32%; for `N#Cc1cccc(C#N)c1-c1nc2ncccc2o1`, 19%.
